The text below walks through data of patent publication US20250228239A1, “MOLECULES HAVING PESTICIDAL UTILITY, AND INTERMEDIATES, COMPOSITIONS, AND PROCESSES, RELATED THERETO” (priority 2024, published 2025).

The subject of assay [1] is Beet Armyworm (Spodoptera exigua, LAPHEG). Briefly: Bioassays on Beet Armyworm (BAW), 128-well diet tray assay. In kind it is in vivo. The settings on record: Spodoptera exigua. The method, boiled down:
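Percent larval mortality, averaged across eight wells, scored after five to seven days at 25° C. under 14:10 light-dark. Each well held one to five second instars feeding on diet dosed at 50 μg/cm^2 with compound from 90:10 acetone-water, solvent dried off.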

For assay [2], the system named is Cabbage Looper (Trichoplusia ni, TRIPNI). In words: Bioassays on Cabbage Looper (CL), 128-well diet tray assay. The settings on record: Trichoplusia ni. It counts as in vivo. The essentials:
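Activity is mean percent mortality over eight wells of second-instar larvae exposed to diet treated at 50 μg/cm^2 for 5–7 days at 25° C.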

Where [3] appears, read: Beet Armyworm, rating class, read-out: BAW.
[4] abbreviates: Cabbage Looper, rating class, read-out: CL.
[5] abbreviates: Table ABC: Biological Results, species BAW, read-out: BAW.
The mark [6] stands for this setting: Table ABC: Biological Results, species CL, read-out: CL.
Where [7] appears, read: Beet Armyworm, Table ABC / ABC-DP rating, read-out: BAW rating.
Setting [8] is: Cabbage Looper, Table ABC / ABC-DP rating, read-out: CL rating.

Read-outs that look alike come from different tables or passages of the source.

On to `O=C(Nc1cc(NC(=O)C(F)F)c(F)cc1F)c1cc(NC(=O)[C@H]2[C@H](c3ccc(Cl)c(Cl)c3)C2(Cl)Cl)cc(F)c1Cl` [F1402, 2-Chloro-5-((1R,3R)-2,2-dichloro-3-(3,4-dichlorophenyl)cyclopropane-1-carboxamido)-N-(5-(2,2-difluoroacetamido)-2,4-difluorophenyl)-3-fluorobenzamide], for which the pest or weed control at 50 µg/cm2 in assay [1] (setting [3]) and in assay [2] (setting [4]) was 50 to 100% throughout.

For `O=C(Nc1ccc(F)c(NC(=O)C(F)F)c1F)c1cc(NC(=O)[C@H]2[C@H](c3cc(Cl)c(F)c(Cl)c3)C2(Cl)Cl)ccc1Cl` (relative stereo) [F1331, trans-2-Chloro-5-(2,2-dichloro-3-(3,5-dichloro-4-fluorophenyl)cyclopropane-1-carboxamido)-N-(3-(2,2-difluoroacetamido)-2,4-difluorophenyl)benzamide], the pest or weed control at 50 µg/cm2 in assay [1] (setting [5]) and in assay [2] (setting [6]) was 50 to 100% throughout.

For the molecule `Nc1c(F)ccc(NC(=O)c2cc(NC(=O)[C@H]3[C@H](c4ccc(F)c(Cl)c4)C3(Cl)Cl)cc(F)c2Cl)c1F` (relative stereo) [F1156, trans-N-(3-Amino-2,4-difluorophenyl)-2-chloro-5-(2,2-dichloro-3-(3-chloro-4-fluorophenyl)cyclopropane-1-carboxamido)-3-fluorobenzamide], the pest or weed control at 50 µg/cm2 in assay [1] (setting [5]) and in assay [2] (setting [6]) was 50 to 100% each time.

As to `CC(=O)Nc1cc(F)cc(F)c1NC(=O)c1cc(NC(=O)[C@H]2[C@H](c3cc(Cl)cc(Cl)c3)C2(Cl)Cl)ccc1Cl` (relative stereo) [F1633, trans-N-(2-Acetamido-4,6-difluorophenyl)-2-chloro-5-(2,2-dichloro-3-(3,5-dichlorophenyl)cyclopropane-1-carboxamido)benzamide], the pest or weed control at 50 µg/cm2 in assay [1] (setting [3]) and in assay [2] (setting [4]) was 50 to 100% throughout.

With `O=C(Nc1ccc(F)c(NC(=O)C(F)(F)c2ccccc2)c1F)c1cc(NC(=O)[C@H]2[C@H](c3ccc(Cl)c(Cl)c3)C2(Cl)Cl)ccc1Cl` [F1471, 2-Chloro-5-((1R,3R)-2,2-dichloro-3-(3,4-dichlorophenyl)cyclopropane-1-carboxamido)-N-(3-(2,2-difluoro-2-phenylacetamido)-2,4-difluorophenyl)benzamide], the pest or weed control at 50 µg/cm2 in assay [1] (setting [3]) and in assay [2] (setting [4]) was 50 to 100% each time.

Take `CC(=O)Nc1c(F)cc(NC(=O)c2cc(NC(=O)[C@H]3[C@H](c4ccc(Cl)c(Cl)c4)C3(Cl)Cl)ccc2Cl)cc1F` (relative stereo) [F1124, trans-N-(4-Acetamido-3,5-difluorophenyl)-2-chloro-5-(2,2-dichloro-3-(3,4-dichlorophenyl)cyclopropane-1-carboxamido)benzamide]: the pest or weed control at 50 µg/cm2 in assay [1] (setting [5]) and in assay [2] (setting [6]) was 50 to 100% throughout.

`Cc1cc(NC(=O)[C@H]2[C@H](c3ccc(F)c(C(F)(F)F)c3)C2(Cl)Cl)cc(C(=O)Nc2cc(NC(=O)C(F)(F)F)c(F)cc2F)c1Cl` [F1501, 2-Chloro-5-((1R,3R)-2,2-dichloro-3-(4-fluoro-3-(trifluoromethyl)phenyl)cyclopropane-1-carboxamido)-N-(2,4-difluoro-5-(2,2,2-trifluoroacetamido)phenyl)-3-methylbenzamide]: the pest or weed control at 50 µg/cm2 in assay [1] (setting [3]) and in assay [2] (setting [4]) was 50 to 100% throughout.

As for `CN(NC(=O)c1cc(NC(=O)[C@H]2[C@H](c3cc(Cl)cc(Cl)c3)C2(Cl)Cl)ccc1Cl)C(=O)C1CC1(F)F` (relative stereo) [F2534, trans-2,2-Dichloro-N-(4-chloro-3-(2-(2,2-difluorocyclopropane-1-carbonyl)-2-methylhydrazine-1-carbonyl)phenyl)-3-(3,5-dichlorophenyl)cyclopropane-1-carboxamide], the pest or weed control at 50 µg/cm2 in assay [1] (setting [7]) and in assay [2] (setting [8]) was 50 to 100% each time.

As for `O=C(CC(F)(F)F)Nc1c(F)ccc(NC(=O)c2cc(NC(=O)[C@H]3[C@H](c4ccc(F)c(Br)c4)C3(Cl)Cl)ccc2Cl)c1F` [F1718, 5-((1R,3R)-3-(3-Bromo-4-fluorophenyl)-2,2-dichlorocyclopropane-1-carboxamido)-2-chloro-N-(2,4-difluoro-3-(3,3,3-trifluoropropanamido)phenyl)benzamide], the pest or weed control at 50 µg/cm2 in assay [1] (setting [3]) and in assay [2] (setting [4]) was 50 to 100% each time.

Take `O=C(Nc1c(F)ccc(NC(=O)c2cc(NC(=O)[C@H]3[C@H](c4ccc(F)c(C(F)(F)F)c4)C3(Cl)Cl)ccc2Cl)c1F)c1cnns1` [F1820, N-(3-(2-Chloro-5-((1R,3R)-2,2-dichloro-3-(4-fluoro-3-(trifluoromethyl)phenyl)cyclopropane-1-carboxamido)benzamido)-2,6-difluorophenyl)-1,2,3-thiadiazole-5-carboxamide]: the pest or weed control at 50 µg/cm2 in assay [1] (setting [7]) and in assay [2] (setting [8]) was 50 to 100% throughout.

For the molecule `O=C(Nc1ccc(F)c(NC(=O)C(F)(F)F)c1F)c1cc(NC(=O)[C@H]2[C@H](c3cc(Cl)cc(Cl)c3)C2(Cl)Cl)cc(F)c1Cl` [F1330, 2-Chloro-5-((1R,3R)-2,2-dichloro-3-(3,5-dichlorophenyl)cyclopropane-1-carboxamido)-N-(2,4-difluoro-3-(2,2,2-trifluoroacetamido)phenyl)-3-fluorobenzamide], the pest or weed control at 50 µg/cm2 in assay [1] (setting [5]) and in assay [2] (setting [6]) was 50 to 100% each time.

Turning to `O=C(Nc1ccc(F)c(NC(=O)C(F)F)c1F)c1cc(NC(=O)[C@H]2[C@H](c3ccc(F)c(I)c3)C2(Cl)Cl)ccc1Cl` (relative stereo) [F1624, trans-2-Chloro-5-(2,2-dichloro-3-(4-fluoro-3-iodophenyl)cyclopropane-1-carboxamido)-N-(3-(2,2-difluoroacetamido)-2,4-difluorophenyl)benzamide], the pest or weed control at 50 µg/cm2 in assay [1] (setting [3]) and in assay [2] (setting [4]) was 50 to 100% in each case.

In the case of `O=C(NCC(F)(F)C(F)(F)F)c1c(Cl)ccc(NC(=O)[C@H]2[C@H](c3ccc(F)c(Cl)c3)C2(Cl)Cl)c1F` [F2073, 6-Chloro-3-((1R,3R)-2,2-dichloro-3-(3-chloro-4-fluorophenyl)cyclopropane-1-carboxamido)-2-fluoro-N-(2,2,3,3,3-pentafluoropropyl)benzamide], the pest or weed control at 50 µg/cm2 in assay [1] (setting [7]) and in assay [2] (setting [8]) was 50 to 100% throughout.

As to `Nc1c(F)c(F)c(F)c(NC(=O)c2cc(NC(=O)[C@H]3[C@H](c4cc(Cl)cc(Cl)c4)C3(Cl)Cl)ccc2Cl)c1F` (relative stereo) [F1022, trans-N-(3-Amino-2,4,5,6-tetrafluorophenyl)-2-chloro-5-(2,2-dichloro-3-(3,5-dichlorophenyl)cyclopropane-1-carboxamido)benzamide], the pest or weed control at 50 µg/cm2 in assay [1] (setting [5]) and in assay [2] (setting [6]) was 50 to 100% throughout.

Turning to `O=C(CC(C(F)(F)F)C(F)(F)F)Nc1c(F)ccc(NC(=O)c2cc(NC(=O)[C@H]3[C@H](c4ccc(F)c(C(F)(F)F)c4)C3(Cl)Cl)ccc2Cl)c1F` [F1833, 2-Chloro-5-((1R,3R)-2,2-dichloro-3-(4-fluoro-3-(trifluoromethyl)phenyl)cyclopropane-1-carboxamido)-N-(2,4-difluoro-3-(4,4,4-trifluoro-3-(trifluoromethyl)butanamido)phenyl)benzamide], the pest or weed control at 50 µg/cm2 in assay [1] (setting [7]) and in assay [2] (setting [8]) was 50 to 100% in each case.

With `O=C(NNc1ccccc1)c1cc(NC(=O)[C@H]2[C@H](c3cc(Cl)cc(Cl)c3)C2(Cl)Cl)ccc1Cl` (relative stereo) [F2556, trans-2,2-Dichloro-N-(4-chloro-3-(2-phenylhydrazine-1-carbonyl)phenyl)-3-(3,5-dichlorophenyl)cyclopropane-1-carboxamide], the pest or weed control at 50 µg/cm2 in assay [1] (setting [7]) and in assay [2] (setting [8]) was 50 to 100% each time.

For the molecule `O=C(Nc1ccc(F)cc1F)c1c(Cl)ccc(NC(=O)[C@H]2[C@H](c3ccc(F)c(Cl)c3)C2(Cl)Cl)c1F` [F1464, 6-Chloro-3-((1R,3R)-2,2-dichloro-3-(3-chloro-4-fluorophenyl)cyclopropane-1-carboxamido)-N-(2,4-difluorophenyl)-2-fluorobenzamide], the pest or weed control at 50 µg/cm2 in assay [1] (setting [3]) and in assay [2] (setting [4]) was 50 to 100% throughout.

Regarding `O=C(Nc1c(F)ccc(NC(=O)C(F)F)c1F)c1cc(NC(=O)[C@H]2[C@H](c3ccc(Cl)c(Cl)c3)C2(Cl)Cl)cc(F)c1Cl` [F1345, 2-Chloro-5-((1R,3R)-2,2-dichloro-3-(3,4-dichlorophenyl)cyclopropane-1-carboxamido)-N-(3-(2,2-difluoroacetamido)-2,6-difluorophenyl)-3-fluorobenzamide], the pest or weed control at 50 µg/cm2 in assay [1] (setting [5]) and in assay [2] (setting [6]) was 50 to 100% throughout.

As to `CCC(C#N)C(=O)Nc1c(F)ccc(NC(=O)c2cc(NC(=O)[C@H]3[C@H](c4ccc(F)c(C(F)(F)F)c4)C3(Cl)Cl)ccc2Cl)c1F` (stereo partly drawn) [F1756, 2-Chloro-N-(3-(2-cyanobutanamido)-2,4-difluorophenyl)-5-((1R,3R)-2,2-dichloro-3-(4-fluoro-3-(trifluoromethyl)phenyl)cyclopropane-1-carboxamido)benzamide], the pest or weed control at 50 µg/cm2 in assay [1] (setting [3]) and in assay [2] (setting [4]) was 50 to 100% in each case.

For `CC(=O)Nc1c(F)ccc(NC(=O)c2cc(NC(=O)[C@H]3[C@H](c4ccc(Cl)c(Cl)c4)C3(Cl)Cl)cc(C)c2Cl)c1F` [F1543, N-(3-Acetamido-2,4-difluorophenyl)-2-chloro-5-((1R,3R)-2,2-dichloro-3-(3,4-dichlorophenyl)cyclopropane-1-carboxamido)-3-methylbenzamide], the pest or weed control at 50 µg/cm2 in assay [1] (setting [3]) and in assay [2] (setting [4]) was 50 to 100% throughout.
